The molecules below were run on primary human lung fibroblasts and primary rodent HSCs (assay: High content imaging assay (α-SMA staining, cell morphology) of fibroblast to myofibroblast transdifferentiation, confirmed by Western blot and RT-PCR). Details: Homo sapiens, Fibroblast; imaging and western based activity.
From the text: High content imaging assays have been established, using primary human lung fibroblasts and primary rodent HSCs, that enable the identification of small molecules that either inhibit myofibroblast formation/activation or induce the reversion of activated myofibroblasts to a quiescent fibroblast state. Conditions, involving serum starvation and subsequent TGF-β treatment, have been identified that facilitate robust in vitro transdifferentiation in a miniaturized (384 well plate) format that is amenable to high throughput small molecule screening. The inhibition assay is based on α-SMA immunofluorescent staining and cell morphology changes associated with fibroblast to myofibroblast transdifferentiation, Using the selective ALK-5 TGF-β1 receptor inhibitor ([…]) as a positive control, the inhibition assay has been used to initiate a screen of a collection of ˜100,000 small molecules that consists of bioactive small molecules and a diversity set that has been assembled based on 2D and 3D structural diversity and inherent “drug-likeness” properties. Preliminary screening led to the identification of multiple previously identified anti-fibrotic molecules.
A high content imaging assay, based on α-SMA staining and cell morphological changes associated with fibroblast to myofibroblast transdifferentiation, was established using primary human lung fibroblasts and primary rodent HSCs. Conditions, involving serum starvation and subsequent TGF-β treatment, were identified that facilitate robust in vitro transdifferentiation in a miniaturized (384 well plate) format that is amenable to high throughput small molecule screening. A selective ALK-5 TGF-β1 receptor inhibitor (SB-431542) was used as a positive control. […] This assay was used to evaluate compounds of Formula (I), (Ia), (II), (IIa), (III), (IIIa), (IV), (IVa), (IVb), (V), (Va), (VI), (VIa), (VIb), (VIc), (VII), (VIIa), (VIII), (VIIIa), (IX), (IXa), (X), or (Xa) generated from medicinal chemistry efforts.
The activity of Itraconazole and compounds of Formula (I), (Ia), (II), (IIa), (III), (IIIa), (IV), (IVa), (IVb), (V), (Va), (VI), (VIa), (VIb), (VIc), (VII), (VIIa), (VIII), (VIIIa), (IX), (IXa), (X), or (Xa) was confirmed by analyzing changes in gene expression of multiple genes associated with fibroblast to myofibroblast transdifferentiation using biochemical methods (i.e., Western blot and RT-PCR). These 4-day assays were used to evaluate sets of 6 compounds at a time in 4-point dose response fashion.
The EC50 for (imaging and western based) activity is graded as: +++=<500 nM; ++=500 nM to 5 μM; +=5 to 30 μM); −=>30 μM; NT=Not Tested.

| Structure (SMILES) | EC50 |
| --- | --- |
| CCC(C)n1ncn(-c2ccc(N3CCN(c4ccc(OC[C@@H]5CO[C@@](Cn6cccn6)(c6ccccc6C)O5)cc4)CC3)cc2)c1=O (some centres unmarked) [Compound 95] | < 500 nM |
| CCC(C)n1ncn(-c2ccc(N3CCN(c4ccc(OC[C@@H]5CO[C@@](Cn6cccn6)(c6cccc(C)c6)O5)cc4)CC3)cc2)c1=O (some centres unmarked) [Compound 96] | < 500 nM |
| CCC(C)n1ncn(-c2ccc(N3CCN(c4ccc(OC[C@@H]5CO[C@@](Cn6cccn6)(c6ccc(C)cc6)O5)cc4)CC3)cc2)c1=O (some centres unmarked) [Compound 97] | 5000 to 30000 nM |
| CCC(C)n1ncn(-c2ccc(N3CCN(c4ccc(OC[C@@H]5CO[C@@](Cn6cccn6)(c6ccc(S(C)(=O)=O)cc6)O5)cc4)CC3)cc2)c1=O (some centres unmarked) [Compound 98] | 500 to 5000 nM |
| CCC(C)n1ncn(-c2ccc(N3CCN(c4ccc(OC[C@@H]5CO[C@@](Cn6cccn6)(c6ccc(S(N)(=O)=O)cc6)O5)cc4)CC3)cc2)c1=O (some centres unmarked) [Compound 99] | 5000 to 30000 nM |
| CCC(C)n1ncn(-c2ccc(N3CCN(c4ccc(OC[C@@H]5CO[C@@](Cn6cccn6)(c6ccc(C(N)=O)cc6)O5)cc4)CC3)cc2)c1=O (some centres unmarked) [Compound 100] | 500 to 5000 nM |
| CCC(C)n1ncn(-c2ccc(N3CCN(c4ccc(OC[C@@H]5CO[C@@](Cn6cccn6)(c6ccccc6C(N)=O)O5)cc4)CC3)cc2)c1=O (some centres unmarked) [Compound 101] | 5000 to 30000 nM |
| CCC(C)n1ncn(-c2ccc(N3CCN(c4ccc(OC[C@@H]5CO[C@](Cc6ccnnc6)(c6ccc(Cl)cc6)O5)cc4)CC3)cc2)c1=O (some centres unmarked) [Compound 103] | 500 to 5000 nM |
| CCC(C)n1ncn(-c2ccc(N3CCN(c4ccc(OC[C@@H]5CO[C@](Cc6ccnnc6)(c6cccc(Cl)c6)O5)cc4)CC3)cc2)c1=O (some centres unmarked) [Compound 104] | 500 to 5000 nM |
| CCC(C)n1ncn(-c2ccc(N3CCN(c4ccc(OC[C@@H]5CO[C@](Cc6ccnnc6)(c6ccccc6Cl)O5)cc4)CC3)cc2)c1=O (some centres unmarked) [Compound 105] | < 500 nM |
| CCC(C)n1ncn(-c2ccc(N3CCN(c4ccc(OC[C@@H]5CO[C@](Cc6ccnnc6)(c6ccc(Cl)c(Cl)c6)O5)cc4)CC3)cc2)c1=O (some centres unmarked) [Compound 106] | < 500 nM |
| CCC(C)n1ncn(-c2ccc(N3CCN(c4ccc(OC[C@@H]5CO[C@](Cc6ccnnc6)(c6ccccc6OC)O5)cc4)CC3)cc2)c1=O (some centres unmarked) [Compound 107] | 500 to 5000 nM |
| CCC(C)n1ncn(-c2ccc(N3CCN(c4ccc(OC[C@@H]5CO[C@](Cc6ccnnc6)(c6cccc(OC)c6)O5)cc4)CC3)cc2)c1=O (some centres unmarked) [Compound 108] | 500 to 5000 nM |
| CCC(C)n1ncn(-c2ccc(N3CCN(c4ccc(OC[C@@H]5CO[C@](Cc6ccnnc6)(c6ccc(OC)cc6)O5)cc4)CC3)cc2)c1=O (some centres unmarked) [Compound 109] | 500 to 5000 nM |
| CCC(C)n1ncn(-c2ccc(N3CCN(c4ccc(OC[C@@H]5CO[C@](Cc6ccnnc6)(c6cccc(C#N)c6)O5)cc4)CC3)cc2)c1=O (some centres unmarked) [Compound 110] | 5000 to 30000 nM |
| CCC(C)n1ncn(-c2ccc(N3CCN(c4ccc(OC[C@@H]5CO[C@](Cc6ccnnc6)(c6ccc(C#N)cc6)O5)cc4)CC3)cc2)c1=O (some centres unmarked) [Compound 111] | 5000 to 30000 nM |
| CCC(C)n1ncn(-c2ccc(N3CCN(c4ccc(OC[C@@H]5CO[C@](Cc6ccnnc6)(c6ccccc6C(F)(F)F)O5)cc4)CC3)cc2)c1=O (some centres unmarked) [Compound 112] | 500 to 5000 nM |
| CCC(C)n1ncn(-c2ccc(N3CCN(c4ccc(OC[C@@H]5CO[C@](Cc6ccnnc6)(c6cccc(C(F)(F)F)c6)O5)cc4)CC3)cc2)c1=O (some centres unmarked) [Compound 113] | 500 to 5000 nM |
| CCC(C)n1ncn(-c2ccc(N3CCN(c4ccc(OC[C@@H]5CO[C@](Cc6ccnnc6)(c6ccc(C(F)(F)F)cc6)O5)cc4)CC3)cc2)c1=O (some centres unmarked) [Compound 114] | < 500 nM |
| CCC(C)n1ncn(-c2ccc(N3CCN(c4ccc(OC[C@@H]5CO[C@](Cc6ccnnc6)(c6ccc(OC(F)(F)F)cc6)O5)cc4)CC3)cc2)c1=O (some centres unmarked) [Compound 115] | 500 to 5000 nM |
| CCC(C)n1ncn(-c2ccc(N3CCN(c4ccc(OC[C@@H]5CO[C@](Cc6ccnnc6)(c6ccccc6C)O5)cc4)CC3)cc2)c1=O (some centres unmarked) [Compound 116] | < 500 nM |
| CCC(C)n1ncn(-c2ccc(N3CCN(c4ccc(OC[C@@H]5CO[C@](Cc6ccnnc6)(c6cccc(C)c6)O5)cc4)CC3)cc2)c1=O (some centres unmarked) [Compound 117] | 500 to 5000 nM |

| Structure (SMILES) | EC50 |
| --- | --- |
| CCC(C)n1ncn(-c2ccc(N3CCN(c4ccc(OC[C@@H]5CO[C@](Cc6ccnnc6)(c6ccc(C)cc6)O5)cc4)CC3)cc2)c1=O (some centres unmarked) [Compound 118] | 5000 to 30000 nM |
| CCC(C)n1ncn(-c2ccc(N3CCN(c4ccc(OC[C@@H]5CO[C@](Cc6ccnnc6)(c6ccc(S(C)(=O)=O)cc6)O5)cc4)CC3)cc2)c1=O (some centres unmarked) [Compound 119] | 5000 to 30000 nM |
| CCC(C)n1ncn(-c2ccc(N3CCN(c4ccc(OC[C@@H]5CO[C@](Cc6ccnnc6)(c6ccc(S(N)(=O)=O)cc6)O5)cc4)CC3)cc2)c1=O (some centres unmarked) [Compound 120] | > 30000 nM |
| CCC(C)n1ncn(-c2ccc(N3CCN(c4ccc(OC[C@@H]5CO[C@](Cc6ccnnc6)(c6ccc(C(N)=O)cc6)O5)cc4)CC3)cc2)c1=O (stereo partly drawn) [Compound 121, 4-((2S,4R)-4-((4-(4-(4-(1-sec-butyl-5-oxo-1H-1,2,4-triazol-4(5H)-yl)phenyl)piperazin-1-yl)phenoxy)methyl)-2-(pyridazin-4-ylmethyl)-1,3-dioxolan-2-yl)benzamide] | 5000 to 30000 nM |
| CCC(C)n1ncn(-c2ccc(N3CCN(c4ccc(OC[C@@H]5CO[C@](Cc6ccnnc6)(c6cc(Cl)cc(Cl)c6)O5)cc4)CC3)cc2)c1=O (some centres unmarked) [Compound 122] | < 500 nM |
| CCC(C)n1ncn(-c2ccc(N3CCN(c4ccc(OC[C@@H]5CO[C@@](Cc6ccnnc6)(c6ccc(Cl)cc6)O5)cc4)CC3)cc2)c1=O (some centres unmarked) [Compound 123] | < 500 nM |
| CCC(C)n1ncn(-c2ccc(N3CCN(c4ccc(OC[C@@H]5CO[C@@](Cc6ccnnc6)(c6cccc(Cl)c6)O5)cc4)CC3)cc2)c1=O (some centres unmarked) [Compound 124] | < 500 nM |
| CCC(C)n1ncn(-c2ccc(N3CCN(c4ccc(OC[C@@H]5CO[C@@](Cc6ccnnc6)(c6ccccc6Cl)O5)cc4)CC3)cc2)c1=O (some centres unmarked) [Compound 125] | < 500 nM |
| CCC(C)n1ncn(-c2ccc(N3CCN(c4ccc(OC[C@@H]5CO[C@@](Cc6ccnnc6)(c6ccc(Cl)c(Cl)c6)O5)cc4)CC3)cc2)c1=O (some centres unmarked) [Compound 126] | < 500 nM |
| CCC(C)n1ncn(-c2ccc(N3CCN(c4ccc(OC[C@@H]5CO[C@@](Cc6ccnnc6)(c6ccccc6OC)O5)cc4)CC3)cc2)c1=O (some centres unmarked) [Compound 127] | < 500 nM |
| CCC(C)n1ncn(-c2ccc(N3CCN(c4ccc(OC[C@@H]5CO[C@@](Cc6ccnnc6)(c6cccc(OC)c6)O5)cc4)CC3)cc2)c1=O (some centres unmarked) [Compound 128] | 500 to 5000 nM |
| CCC(C)n1ncn(-c2ccc(N3CCN(c4ccc(OC[C@@H]5CO[C@@](Cc6ccnnc6)(c6ccc(OC)cc6)O5)cc4)CC3)cc2)c1=O (some centres unmarked) [Compound 129] | < 500 nM |
| CCC(C)n1ncn(-c2ccc(N3CCN(c4ccc(OC[C@@H]5CO[C@@](Cc6ccnnc6)(c6cccc(C#N)c6)O5)cc4)CC3)cc2)c1=O (some centres unmarked) [Compound 130] | 500 to 5000 nM |
| CCC(C)n1ncn(-c2ccc(N3CCN(c4ccc(OC[C@@H]5CO[C@@](Cc6ccnnc6)(c6ccc(C#N)cc6)O5)cc4)CC3)cc2)c1=O (some centres unmarked) [Compound 131] | > 30000 nM |
| CCC(C)n1ncn(-c2ccc(N3CCN(c4ccc(OC[C@@H]5CO[C@@](Cc6ccnnc6)(c6ccccc6C(F)(F)F)O5)cc4)CC3)cc2)c1=O (some centres unmarked) [Compound 132] | < 500 nM |
| CCC(C)n1ncn(-c2ccc(N3CCN(c4ccc(OC[C@@H]5CO[C@@](Cc6ccnnc6)(c6cccc(C(F)(F)F)c6)O5)cc4)CC3)cc2)c1=O (some centres unmarked) [Compound 133] | < 500 nM |
| CCC(C)n1ncn(-c2ccc(N3CCN(c4ccc(OC[C@@H]5CO[C@@](Cc6ccnnc6)(c6ccc(C(F)(F)F)cc6)O5)cc4)CC3)cc2)c1=O (some centres unmarked) [Compound 134] | < 500 nM |
| CCC(C)n1ncn(-c2ccc(N3CCN(c4ccc(OC[C@@H]5CO[C@@](Cc6ccnnc6)(c6ccc(OC(F)(F)F)cc6)O5)cc4)CC3)cc2)c1=O (some centres unmarked) [Compound 135] | < 500 nM |
| CCC(C)n1ncn(-c2ccc(N3CCN(c4ccc(OC[C@@H]5CO[C@@](Cc6ccnnc6)(c6ccccc6C)O5)cc4)CC3)cc2)c1=O (some centres unmarked) [Compound 136] | 500 to 5000 nM |
| CCC(C)n1ncn(-c2ccc(N3CCN(c4ccc(OC[C@@H]5CO[C@@](Cc6ccnnc6)(c6cccc(C)c6)O5)cc4)CC3)cc2)c1=O (some centres unmarked) [Compound 137] | < 500 nM |
| CCC(C)n1ncn(-c2ccc(N3CCN(c4ccc(OC[C@@H]5CO[C@@](Cc6ccnnc6)(c6ccc(C)cc6)O5)cc4)CC3)cc2)c1=O (some centres unmarked) [Compound 138] | < 500 nM |
| CCC(C)n1ncn(-c2ccc(N3CCN(c4ccc(OC[C@@H]5CO[C@@](Cc6ccnnc6)(c6cc(Cl)cc(Cl)c6)O5)cc4)CC3)cc2)c1=O (some centres unmarked) [Compound 139] | < 500 nM |

From US10336735B2, “Small molecule inhibitors of fibrosis” (THE CALIFORNIA INSTITUTE FOR BIOMEDICAL RESEARCH, priority 2014, dated 2019)
